Measured values reported in the supplement of paper PMC10307832.

Legend:
Assay in all cases: relative viability (nuclei count vs DMSO), 5 days (fraction); higher = more cells survive
[1] = compound: COC1=CC=C(C=C1)CN2C=CC3=C2C=C(C=C3)C(=O)NO + COc1cccc2cc(-c3nc([C@H]4CC[C@H](C(=O)O)CC4)n4ncnc(N)c34)[nH]c12 [OSI-027] (partner 0.5 µM)
Method in brief: (§1)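 Relative viability is defined as nuclei in treated wells over nuclei in vehicle wells. Duplicate plates were run and medians reported. Lung cancer cell lines in 1536-well plates were dosed by pin tool one day after seeding, with one drug or with a fixed anchor-drug dose plus five library-drug doses (not always all listed) in √10 steps, and nuclei were counted after 5 days.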

Veliparib + Lapatinib = compound: C[C@]1(c2nc3c(C(N)=O)cccc3[nH]2)CCCN1 [Veliparib] + CS(=O)(=O)CCNCc1ccc(-c2ccc3ncnc(Nc4ccc(OCc5cccc(F)c5)c(Cl)c4)c3c2)o1 [Lapatinib] (partner 2 µM)
Method in brief: as §1

Veliparib + Dasatinib = compound: C[C@]1(c2nc3c(C(N)=O)cccc3[nH]2)CCCN1 [Veliparib] + Cc1nc(Nc2ncc(C(=O)Nc3c(C)cccc3Cl)s2)cc(N2CCN(CCO)CC2)n1 [Dasatinib] (partner 0.075 µM)
Method in brief: as §1

[2] = compound: COC1=CC=C(C=C1)CN2C=CC3=C2C=C(C=C3)C(=O)NO + CS(=O)(=O)N1CCN(Cc2cc3nc(-c4cccc5[nH]ncc45)nc(N4CCOCC4)c3s2)CC1 [Pictilisib] (partner 1 µM)
Method in brief: as §1

Row | Cell Line | relative viability ([1]; first compound 0.08 µM) | relative viability ([1]; first compound 0.253 µM) | relative viability ([1]; first compound 0.8 µM) | relative viability ([1]; first compound 2.53 µM) | relative viability ([1]; first compound 8 µM) | relative viability (Veliparib + Lapatinib; first compound 0.02 µM) | relative viability (Veliparib + Lapatinib; first compound 0.06325 µM) | relative viability (Veliparib + Lapatinib; first compound 0.2 µM) | relative viability (Veliparib + Lapatinib; first compound 0.6325 µM) | relative viability (Veliparib + Lapatinib; first compound 2 µM) | relative viability (Veliparib + Dasatinib; first compound 0.02 µM) | relative viability (Veliparib + Dasatinib; first compound 0.06325 µM) | relative viability (Veliparib + Dasatinib; first compound 0.2 µM) | relative viability (Veliparib + Dasatinib; first compound 0.6325 µM) | relative viability (Veliparib + Dasatinib; first compound 2 µM) | relative viability ([2]; first compound 0.253 µM) | relative viability ([2]; first compound 0.8 µM) | relative viability ([2]; first compound 2.53 µM) | relative viability ([2]; first compound 8 µM) | relative viability ([2]; first compound 0.08 µM)
1 | COR-L 105 | 0.524 | 0.738 | 0.753 | 0.626 | 0.445 | 0.35 | 0.371 | 0.327 | 0.362 | 0.388 | 0.355 | 0.273 | 0.352 | 0.331 | 0.324 | 0.348 | 0.462 | 0.363 | 0.306 | 
2 | HCC-78 | 0.4 | 0.344 | 0.341 | 0.355 | 0.366 | 0.762 | 0.837 | 0.652 | 0.849 | 0.566 | 0.438 | 0.337 | 0.444 | 0.483 | 0.257 | 0.192 | 0.199 | 0.213 | 0.216 | 
3 | NCI-H650 | 0.524 | 0.494 | 0.52 | 0.526 | 0.438 | 0.82 | 0.827 | 0.816 | 0.932 | 0.501 | 0.378 | 0.372 | 0.414 | 0.369 | 0.423 | 0.895 | 0.856 | 0.861 | 0.829 | 0.901
4 | SK-MES-1 | 0.639 | 0.626 | 0.62 | 0.638 | 0.583 | 0.5 | 0.413 | 0.438 | 0.473 | 0.473 | 0.39 | 0.34 | 0.432 | 0.397 | 0.484 | 0.384 | 0.368 | 0.36 | 0.332 | 0.343
5 | NCI-H2170 | 0.708 | 0.725 | 0.8 | 0.81 | 0.609 | 0.259 | 0.245 | 0.268 | 0.299 | 0.285 | 0.549 | 0.629 | 0.587 | 0.562 | 0.592 | 0.393 | 0.347 | 0.27 | 0.279 | 0.271
6 | ABC-1 |  | 0.57 | 0.484 | 0.488 | 0.393 |  | 1.17 | 1.18 | 0.878 | 1.1 |  | 0.355 | 0.604 | 0.591 | 0.367 | 0.761 | 0.78 | 0.724 | 0.662 | 
7 | A-427 |  | 0.44 | 0.497 | 0.492 | 0.367 | 1.11 | 1 | 0.994 | 1.04 | 0.802 |  | 0.714 | 0.699 | 0.657 | 0.539 | 0.743 | 0.787 | 0.643 | 0.606 | 
8 | HARA |  | 0.522 | 0.535 | 0.553 | 0.42 | 0.748 | 0.57 | 0.86 | 0.743 | 0.853 | 0.254 | 0.383 | 0.294 | 0.231 | 0.267 | 0.492 | 0.403 | 0.43 | 0.33 | 0.467
9 | NCI-H1944 |  | 0.427 | 0.401 | 0.407 | 0.375 | 0.825 | 0.748 | 0.627 | 0.72 | 0.767 | 0.204 | 0.196 | 0.21 | 0.195 | 0.219 | 0.37 | 0.317 | 0.357 | 0.322 | 
10 | NCI-H1915 | 0.564 | 0.656 | 0.643 | 0.599 | 0.532 | 0.96 | 0.897 | 0.756 | 0.872 | 0.885 | 0.307 | 0.329 | 0.301 | 0.314 | 0.297 | 0.997 | 1.08 | 0.973 | 0.735 | 0.62
11 | NCI-H1793 |  | 0.296 | 0.267 | 0.328 | 0.248 | 0.548 | 0.555 | 0.788 | 0.572 | 0.762 | 0.398 | 0.448 | 0.408 | 0.277 | 0.448 | 0.239 | 0.395 | 0.267 | 0.335 | 0.17
12 | NCI-H596 | 0.79 | 0.779 | 0.768 | 0.721 | 0.598 | 1.14 | 0.902 | 1.01 | 1.19 | 1.01 | 0.611 | 0.571 | 0.641 | 0.521 | 0.633 | 0.408 | 0.411 | 0.468 | 0.409 | 0.349
13 | NCI-H1666 | 0.818 | 0.906 | 0.873 | 0.946 | 0.85 | 0.606 | 0.348 | 0.675 | 0.744 | 0.662 | 0.725 | 0.846 | 0.766 | 0.753 | 0.757 | 0.49 | 0.47 | 0.525 | 0.525 | 0.523
14 | NCI-H3122 |  | 1.01 | 0.945 | 0.93 | 0.908 | 0.931 | 1.05 | 0.995 | 0.994 | 1.07 | 0.674 | 0.792 | 0.84 | 0.766 | 0.572 | 0.629 | 0.652 | 0.577 | 0.518 | 0.571
15 | PC-14 | 0.89 | 0.87 | 0.739 | 0.857 | 0.658 | 0.279 | 0.367 | 0.323 | 0.28 | 0.315 | 0.214 | 0.26 | 0.319 | 0.281 | 0.317 | 0.629 | 0.766 | 0.688 | 0.699 | 0.388
16 | NCI-H2087 | 0.626 | 0.632 | 0.592 | 0.561 | 0.347 | 0.548 | 1.02 | 0.913 | 0.854 | 1.32 | 0.738 | 0.731 | 0.886 | 0.788 | 0.942 | 0.936 | 0.776 | 0.976 | 0.674 | 0.497
17 | NCI-H1650 | 0.586 | 0.682 | 0.714 | 0.568 | 0.542 |  | 0.702 | 0.855 | 0.739 | 0.718 |  | 0.319 | 0.3 | 0.271 | 0.223 | 0.595 | 0.567 | 0.541 | 0.32 | 0.173
